One experiment deals with T1, human Gal-1 (Homo sapiens, UniProt P09382).
T1 construct: made in house; host or cells: Escherichia coli BL21 (DE3)
Description: Competitive solid-phase assay (SPA), immobilized asialofetuin, Gal-1. The note with it: mean ± S.D., three independent experiments. The format is binding. The method, then: (§1) The assay was adapted from Rapoport et al. (2010) ([88]). Briefly, 96-well plates (flat-bottom) were coated with 10 μg/ml asialofetuin (ASF, Sigma-Aldrich) in sodium carbonate buffer (pH 9.6) and incubated overnight at 4 °C. Then, wells were washed three times with 100 μl/well PBS-Tween 0.05% (w/v) and blocked with 100 μl/well PBS-bovine serum albumin (BSA) 2% (1 h, room temperature (RT)) in a humid chamber. Meanwhile, equal volumes of human recombinant Gal-1, -3, -4, -7, and -12 (20–40 μg/ml) in PBS-BSA 0.3% buffer were preincubated with the corresponding inhibitors in serial dilutions (2 h, 37 °C). After washing, galectins were detected using the corresponding antigalectin primary detection antibodies in PBS-BSA 0.3% w/v (1 h at RT). For Gal-1, wells were incubated with an in-house purified 100 ng/ml biotinylated rabbit anti–human Gal-1 polyclonal immunoglobulin G. For Gal-3, -4, and -7, a 1:500 dilution of the corresponding biotinylated anti-human galectin antibodies was used (BAF1154, BAF1227, and MAB13391, respectively, R&D Systems). For Gal-12, a rabbit anti-human Gal-12 polyclonal antibody (Santa Cruz Biotechnology, 1:700) was used. For Gal-1, -3, -4, and -7, plates were rinsed three times before adding 0.33 μg/ml horseradish peroxidase (HRP)-labeled streptavidin (Sigma-Aldrich) for 30 min. For Gal-12, an anti-rabbit secondary antibody conjugate coupled to HRP was incubated for 1 h at RT in PBS-BSA 0.3% w/v. After washing, 100 μl TMB solution (0.1 mg/ml tetramethylbenzidine and 0.06% H2O2 in citrate-phosphate buffer, pH 5.0) was added to plates. The reaction was stopped by adding a 2N H2SO4 solution. Absorbance was determined at 450 nm in a Multiskan MS microplate reader (Thermo Fisher Scientific).

The target in another experiment is T2, human Gal-3 (Homo sapiens, UniProt P17931).
T2 construct: made in house; host or cells: Escherichia coli BL21 (DE3)
T2 sequence (P17931 whole entry): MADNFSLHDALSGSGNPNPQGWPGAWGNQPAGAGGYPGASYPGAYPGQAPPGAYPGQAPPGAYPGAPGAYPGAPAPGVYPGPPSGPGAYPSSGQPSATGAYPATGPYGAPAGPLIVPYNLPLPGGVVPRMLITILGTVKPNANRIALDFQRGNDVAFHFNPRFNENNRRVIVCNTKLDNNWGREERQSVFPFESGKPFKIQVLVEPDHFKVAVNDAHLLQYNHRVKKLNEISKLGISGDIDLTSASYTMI
Description: Competitive solid-phase assay (SPA), immobilized asialofetuin, Gal-3. The note with it: mean ± S.D., three independent experiments. It is filed as binding. The procedure: as §1

In experiment [1] the target is T3, human Gal-4 (Homo sapiens, UniProt P56470).
T3 construct: His6-SUMO (N, cleaved yes); made in house; host or cells: Escherichia coli BL21 (DE3)
T3 sequence (P56470 1-323): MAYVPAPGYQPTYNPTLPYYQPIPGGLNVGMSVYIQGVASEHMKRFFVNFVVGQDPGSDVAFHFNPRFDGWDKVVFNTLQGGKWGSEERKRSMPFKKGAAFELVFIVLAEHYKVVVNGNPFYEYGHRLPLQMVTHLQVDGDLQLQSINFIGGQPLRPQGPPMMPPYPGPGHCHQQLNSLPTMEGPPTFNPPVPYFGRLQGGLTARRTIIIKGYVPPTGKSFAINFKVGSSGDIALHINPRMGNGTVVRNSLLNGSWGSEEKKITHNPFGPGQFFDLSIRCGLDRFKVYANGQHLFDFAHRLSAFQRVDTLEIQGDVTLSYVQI
In words: Isothermal titration calorimetry (ITC), Gal-4. The format is binding. The note with it: Gal-4, PBS, 298 K; for Kd: n fixed to 1.00. The procedure: (§2) All ITC experiments were performed by using a NanoITC (TA Instruments) under previously optimized conditions ([89]). A typical titration involved 20 injections at 300 s intervals of 2.5 μl aliquots of a 2.5 to 10 mM ligand solution into the sample cell (volume 200 μl) containing the different galectins (30–100 μM). The solutions were prepared by dissolving the glycan ligands in degassed PBS buffer at 298 K. The titration cell was continuously stirred at 300 rev/min. The heats of dilution of the ligands in the buffer were subtracted from the titration data. […] Fitting was performed using the Nano Analyze software (TA Instruments; https://www.tainstruments.com/itcrun-dscrun-nanoanalyze-software/) to determine association constants (Ka) and the enthalpy change (ΔH). No reliable fit of the thermodynamic parameters could be obtained for binding affinities above 80 μM.
Background: In ITC the heat of successive injections is recorded.

The target in experiment [2] is T3, human Gal-4. In words: Competitive solid-phase assay (SPA), immobilized asialofetuin, Gal-4. It is filed as binding. The note with it: mean ± S.D., three independent experiments. The procedure: as §1
Experiment [3] concerns the target T4, human Gal-7 (Homo sapiens, UniProt P47929).
T4 construct: made in house; host or cells: Escherichia coli BL21 (DE3)
Description: Competitive solid-phase assay (SPA), immobilized asialofetuin, Gal-7. The format is binding. The note with it: competitive SPA, immobilized asialofetuin; mean ± S.D., three independent experiments. The method, then:
as §1

Experiment [4] addresses T5, human Gal-12 (Homo sapiens, UniProt Q96DT0).
T5 construct: To obtain full-length human Gal-12, we adapted our previously optimized procedure for murine Gal-12; made in house; host or cells: Escherichia coli Rosetta 2 (DE3)
T5 sequence (Q96DT0 1-336): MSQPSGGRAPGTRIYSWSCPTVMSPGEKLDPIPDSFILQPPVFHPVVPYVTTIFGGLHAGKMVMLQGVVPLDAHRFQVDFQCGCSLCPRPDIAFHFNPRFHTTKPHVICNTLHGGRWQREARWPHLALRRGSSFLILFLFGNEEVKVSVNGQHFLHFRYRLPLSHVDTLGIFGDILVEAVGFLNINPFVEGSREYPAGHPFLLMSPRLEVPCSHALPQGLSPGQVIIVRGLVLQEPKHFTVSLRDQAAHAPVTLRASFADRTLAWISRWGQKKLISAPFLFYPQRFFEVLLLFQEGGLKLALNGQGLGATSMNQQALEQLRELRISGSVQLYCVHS
Description: Competitive solid-phase assay (SPA), immobilized asialofetuin, Gal-12. It is filed as binding. As to conditions: mean ± S.D., three independent experiments. The method, then: as §1

Experiment [5] has as its target T4, human Gal-7. Description: Isothermal titration calorimetry (ITC), Gal-7. The format is binding. The note with it: Gal-7, PBS, 298 K, n fixed to 1.00. The procedure:
as §2

In experiment [6] the target is T3, human Gal-4. In words: Inhibition of Gal-4-driven IL-6 secretion by activated PBMCs (IL-6 ELISA). The format is cell-based. As to conditions: Gal-4 50 or 100 μg/ml; BGA6 0.5, 1, 2.5 and 5 mM; 72 h; anti-CD3/CD28 activated PBMCs. The procedure: (§3) PBMCs were isolated from anonymous healthy volunteer buffy coats (Fundación Hemocentro Blood Bank, Buenos Aires, Argentina), using Ficoll-Hypaque density gradient (Lymphoprep). The samples were then centrifuged at 1500 rpm for 25 min, and the interface corresponding to mononuclear cells was carefully removed and diluted with PBS supplemented with 2% fetal bovine serum. To reduce platelet contamination, three washing steps with PBS 2% fetal bovine serum were performed, and freshly isolated PBMCs were subsequently resuspended in complete RPMI medium. To obtain a bead to T-cell ratio of 1:1, approximately 16 × 10^4 PBMCs were activated with 2 μl of Dynabeads Human T-Activator CD3/CD28 (Gibco). After 24 h stimulation at 37 °C and 5% CO2, cells were incubated with human recombinant Gal-4 (25, 50, or 100 μg/ml) in the absence or presence of BGA6 (0.5, 1, 2.5, and 5 mM) for an additional time period of 72 h.
(§4) Human IL-6 was determined in supernatants from activated PBMCs exposed or not to Gal-4 in the absence or presence of BGA6 using specific ELISA kits (BD Biosciences), according to the manufacturer's instructions. Briefly, 96-well plates (Costar) were coated with capture antibody during 18 h at 4 °C. […] Reaction was stopped with 2N H2SO4, and the absorbance was measured at 450 nm using a plate spectrophotometer (Multiskan).

The target in another experiment is Gal-1. On the set-up: method as in PMID 15476813. As to conditions: at 298 K; read-out: dissociation constant reported for Gal-1/LacNAc interactions; cited from earlier work.
The target in experiment [7] is T5, human Gal-12. Description: Isothermal titration calorimetry (ITC), Gal-12. It is filed as binding. The note with it: Gal-12, PBS, 298 K, n fixed to 1.00. The method, then: as §2
The next experiment relates to human PBMCs. In words: IL-6 secretion by anti-CD3/CD28-activated PBMCs cultured with Gal-4 (IL-6 ELISA). It is filed as cell-based. As to conditions: Gal-4 25, 50 or 100 μg/ml, 72 h. The method, then:
as §3, §4
In general terms: ELISA stands for enzyme-linked immunosorbent assay.

Where “and” joins values, the source holds several entries; their conditions need not be identical. Equal entries are not always repeated.

T1 sequence (P09382 whole entry): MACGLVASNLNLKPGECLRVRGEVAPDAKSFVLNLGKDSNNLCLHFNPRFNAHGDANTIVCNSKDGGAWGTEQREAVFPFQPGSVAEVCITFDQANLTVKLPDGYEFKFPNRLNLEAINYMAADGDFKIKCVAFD
T4 sequence (P47929 whole entry): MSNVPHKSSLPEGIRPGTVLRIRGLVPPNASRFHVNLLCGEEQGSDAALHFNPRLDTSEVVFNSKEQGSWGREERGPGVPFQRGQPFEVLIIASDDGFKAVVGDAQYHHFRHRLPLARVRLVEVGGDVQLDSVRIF

With `CC(=O)NC1C(O)OC(CO)C(OC2OC(CO)C(O)C(OC3OC(CO)C(O)C(O)C3NC(C)=O)C2OC2OC(C)C(O)C(O)C2O)C1O` (stereo not drawn) [BGA2, blood group A antigen 2], the half-inhibitory concentration (IC50) (usually the concentration needed to halve the response being measured) is 6.3 mM and 6.32 mM at human Gal-1; 1.9 ± 0.4 mM on human Gal-3; 0.2 mM and 0.24 mM at human Gal-4 [2]; 2.2 ± 0.4 mM at human Gal-7 [3]; 25.3 ± 12 mM at human Gal-12 [4]. Moreover, the “-TΔS” value on human Gal-4 [1] came to 0.263 ± 0.048 kcal/mol. Moreover, the ΔH at human Gal-4 [1] is -5.98 ± 0.48 kcal/mol. Moreover, the Kd on human Gal-4 [1] was 0.065 ± 0.005 mM; on human Gal-7 [5], 0.103 ± 0.008 mM.

On to `CC(=O)NC1C(OC2C(O)C(CO)OC(OC3C(CO)OC(O)C(O)C3O)C2OC2OC(C)C(O)C(O)C2O)OC(CO)C(O)C1O` (stereo not drawn) [BGA6, blood group A antigen tetraose 6], for which the IC50 was 5 mM and 5.02 mM at human Gal-1; 1.5 ± 0.3 mM on human Gal-3; 0.2 ± 0.1 mM at human Gal-4 [2]; 5.4 ± 0.7 mM at human Gal-7 [3]; 27.1 ± 1 mM on human Gal-12 [4]. Further, the “-TΔS” value at human Gal-4 [1] came out at 1.77 ± 0.14 kcal/mol. At human Gal-4 [1], the ΔH is -7.65 ± 0.72 kcal/mol. The same molecule registered a Kd at human Gal-4 [1] of 0.051 ± 0.003 mM. The “Gal-4-driven IL-6 secretion by human activated PBMCs in presence of BGA6” value on human Gal-4 [6] is “effectively suppressed”.

Turning to `CC(=O)NC1C(O)OC(CO)C(OC2OC(CO)C(O)C(O)C2O)C1O` (stereo not drawn) [LacNAc, N-acetyllactosamine], the IC50 on human Gal-1 is 1.3 ± 0.1 mM; on human Gal-3, 2 ± 0.2 mM; at human Gal-4 [2] it was 25.8 mM; at human Gal-7 [3], 2.5 mM and 2.49 mM; at human Gal-12 [4] it was 36 ± 0.9 mM. In addition, at Gal-1, the Kd was 0.076 mM.

Regarding `CC(=O)NC1C(O)OC(CO)C(OC2OC(CO)C(O)C(O)C2O)C1OC1OC(C)C(O)C(O)C1O` (stereo not drawn) [Le^X, Lewis X trisaccharide], the IC50 at human Gal-1 was 8.2 ± 0.9 mM; on human Gal-3 it was 9.5 ± 0.5 mM; on human Gal-4 [2], 26.2 ± 0.9 mM; at human Gal-7 [3], 15.1 ± 2 mM; on human Gal-12 [4] it was 2 ± 0.3 mM. Besides, the Kd at human Gal-12 [7] was found to be 0.08 ± 0.009 mM.

Take `CC(=O)NC1C(O)CC(OC2C(O)C(CO)OC(OC3C(CO)OC(O)C(O)C3OC3OC(C)C(O)C(O)C3O)C2O)(C(=O)O)OC1C(O)C(O)CO` (stereo not drawn) [SFL, 3’-sialyl-3-fucosyllactose]: the IC50 at human Gal-1 was found to be 5.7 ± 0.1 mM; at human Gal-3 it was 39 ± 0.6 mM; at human Gal-7 [3] it was 4.8 ± 0.9 mM; on human Gal-12 [4] it was 3.2 ± 0.4 mM. The same molecule gave a Kd at human Gal-12 [7] of 0.151 ± 0.011 mM.

B1: Gal-4: recombinant full-length human galectin-4, tandem-repeat type lectin expressed in E. coli (protein)
chain: MAYVPAPGYQPTYNPTLPYYQPIPGGLNVGMSVYIQGVASEHMKRFFVNFVVGQDPGSDVAFHFNPRFDGWDKVVFNTLQGGKWGSEERKRSMPFKKGAAFELVFIVLAEHYKVVVNGNPFYEYGHRLPLQMVTHLQVDGDLQLQSINFIGGQPLRPQGPPMMPPYPGPGHCHQQLNSLPTMEGPPTFNPPVPYFGRLQGGLTARRTIIIKGYVPPTGKSFAINFKVGSSGDIALHINPRMGNGTVVRNSLLNGSWGSEEKKITHNPFGPGQFFDLSIRCGLDRFKVYANGQHLFDFAHRLSAFQRVDTLEIQGDVTLSYVQI
modifications: left off: His6, N-terminal, cleaved | SUMO, N-terminal, cleaved
notes: recombinant full-length human galectin-4, tandem-repeat type lectin expressed in E. coli
On to B1, for which the “secretion of IL-6 by human-activated T lymphocytes in PBMCs” value in the experiment with human PBMCs is “significant and dose-dependent increase”.

These data come from paper PMC11367503, “Exploring galectin interactions with human milk oligosaccharides and blood group antigens identifies BGA6 as a functional galectin-4 ligand” (The Journal of Biological Chemistry, 2024).
